Measured values taken from patent US20250144223A1, “PROTEIN DEGRADATION COMPOUND BASED ON NAMPT TARGET PROTEIN AND APPLICATION THEREOF” (GLUETACS THERAPEUTICS (SHANGHAI) CO., LTD., priority 2021, published 2025).

Test system: Jurkat
Experiment: CellTiter-Glo Luminescent Cell Viability Assay, half inhibitory concentration (IC50) on tumor cell proliferation
Assay type: cell-based
Settings: Homo sapiens, Jurkat cells, 72 h treatment
Method: The tumor cells used herein were cultured in a cell culture medium at 37° C. in an incubator with 5% CO2, where the cell culture medium was supplemented with 10% FBS, as well as penicillin at a final concentration of 100 U/mL and streptomycin at a final concentration of 100 μg/mL. Prior to experimentation, all cells used were identified as correct cells by STR cells, and were negative for mycoplasma through routine testing.
IC50 values of the compounds of the present disclosure (including the compounds in Table 1 and compounds of examples) were measured using the CellTiter-Glo® Luminescent Cell Viability Assay kit from Promega Corporation. Assay details are as follows: Cells were seeded in 100 μL RPMI1640 medium containing serum at a density of 20,000 cells/well. After 24 h, the inoculated cells were treated with the compounds of the present disclosure which were serially diluted. After the cells were treated with the compounds of the present disclosure for 72 h, the CellTiter-Glo® reagent was added to the culture medium for cell viability assessment according to the instructions provided with the kit. DMSO served as the negative control, and FK866 inhibitor was used as the positive control, both treated with the same protocol as the compounds of the present disclosure. The growth inhibition of the compounds of the present disclosure on cells was plotted by Prism Graphpad software, and the IC50 values of the compounds of the present disclosure were calculated therefrom.

Row | IC50 [nM] | SMILES
1 | 7.28 | O=C(/C=C/c1cccnc1)NCCCCC1CCN(C(=O)c2ccc(N3CCN(CCCCCCCSc4cccc5c4CN(C4CCC(=O)NC4=O)C5=O)CC3)cc2)CC1 (stereo not shown) [SIAIS630134, (E)-N-(4-(1-(4-(4-(7-((2-(2,6-dioxopiperidin-3-yl)-1-oxoisoindolin-4-yl)thio)heptyl)piperazin-1-yl)benzoyl)piperidin-4-yl)butyl)-3-(pyridin-3-yl)acrylamide]
2 | 4.02 | O=C(/C=C/c1cccnc1)NCCCCC1CCN(C(=O)c2ccc(N3CCN(CCCCCCCCSc4cccc5c4CN(C4CCC(=O)NC4=O)C5=O)CC3)cc2)CC1 (stereo not shown) [SIAIS630135, (E)-N-(4-(1-(4-(4-(8-((2-(2,6-dioxopiperidin-3-yl)-1-oxoisoindolin-4-yl)thio)octyl)piperazin-1-yl)benzoyl)piperidin-4-yl)butyl)-3-(pyridin-3-yl)acrylamide]
3 | 64.5 | O=C(/C=C/c1cccnc1)NCCCCC1CCN(C(=O)c2ccc(N3CCN(CCCCCCCCCCCSc4cccc5c4CN(C4CCC(=O)NC4=O)C5=O)CC3)cc2)CC1 (stereo not shown) [SIAIS630136, (E)-N-(4-(1-(4-(4-(11-((2-(2,6-dioxopiperidin-3-yl)-1-oxoisoindolin-4-yl)thio)undecyl)piperazin-1-yl)benzoyl)piperidin-4-yl)butyl)-3-(pyridin-3-yl)acrylamide]
4 | 140 | Cc1ncsc1-c1ccc(CNC(=O)[C@@H]2C[C@@H](O)CN2C(=O)[C@@H](NC(=O)CCOCCOCCC(=O)N2CCN(c3ccc(C(=O)N4CCC(CCCCNC(=O)/C=C/c5cccnc5)CC4)cc3)CC2)C(C)(C)C)cc1 [SIAIS631011, (2S,4R)-1-((S)-3,3-dimethyl-2-(3-(2-(3-oxo-3-(4-(4-(4-(4-((E)-3-(pyridin-3-yl)acrylamido)butyl)piperidine-1-carbonyl)phenyl)piperazin-1-yl)propoxy)ethoxy)propanamido)butanoyl)-4-hydroxy-N-(4-(4-methylthiazol-5-yl)benzyl)pyrrolidine-2-carboxamide]
5 | 80 | O=C(/C=C/c1cccnc1)NCCCCN1CCN(C(=O)c2ccc(N3CCN(CCCCCC#Cc4cccc5c4CN(C4CCC(=O)NC4=O)C5=O)CC3)cc2)CC1 (stereo not shown) [SIAIS631045, (E)-N-(4-(4-(4-(4-(7-(2-(2,6-dioxopiperidin-3-yl)-1-oxoisoindolin-4-yl)hept-6-yn-1-yl)piperazin-1-yl)benzoyl)piperazin-1-yl)butyl)-3-(pyridin-3-yl)acrylamide]
6 | 74.4 | O=C(/C=C/c1cccnc1)NCCCCC1CCN(C(=O)c2ccc(N3CCN(CCSc4cccc5c4C(=O)N(C4CCC(=O)NC4=O)C5=O)CC3)cc2)CC1 (stereo not shown) [SIAIS631068, (E)-N-(4-(1-(4-(4-(2-((2-(2,6-dioxopiperidin-3-yl)-1,3-dioxoisoindolin-4-yl)thio)ethyl)piperazin-1-yl)benzoyl)piperidin-4-yl)butyl)-3-(pyridin-3-yl)acrylamide]
7 | 71.2 | O=C(/C=C/c1cccnc1)NCCCCC1CCN(C(=O)c2ccc(N3CCN(CCCSc4cccc5c4C(=O)N(C4CCC(=O)NC4=O)C5=O)CC3)cc2)CC1 (stereo not shown) [SIAIS631069, (E)-N-(4-(1-(4-(4-(3-((2-(2,6-dioxopiperidin-3-yl)-1,3-dioxoisoindolin-4-yl)thio)propyl)piperazin-1-yl)benzoyl)piperidin-4-yl)butyl)-3-(pyridin-3-yl)acrylamide]
8 | 62.9 | O=C(/C=C/c1cccnc1)NCCCCC1CCN(C(=O)c2ccc(N3CCN(CCCCSc4cccc5c4C(=O)N(C4CCC(=O)NC4=O)C5=O)CC3)cc2)CC1 (stereo not shown) [SIAIS631070, (E)-N-(4-(1-(4-(4-(4-((2-(2,6-dioxopiperidin-3-yl)-1,3-dioxoisoindolin-4-yl)thio)butyl)piperazin-1-yl)benzoyl)piperidin-4-yl)butyl)-3-(pyridin-3-yl)acrylamide]
9 | 635 | O=C(/C=C/c1cccnc1)NCCCCC1CCN(C(=O)c2ccc(N3CCN(CCCCCSc4cccc5c4C(=O)N(C4CCC(=O)NC4=O)C5=O)CC3)cc2)CC1 (stereo not shown) [SIAIS631071, (E)-N-(4-(1-(4-(4-(5-((2-(2,6-dioxopiperidin-3-yl)-1,3-dioxoisoindolin-4-yl)thio)pentyl)piperazin-1-yl)benzoyl)piperidin-4-yl)butyl)-3-(pyridin-3-yl)acrylamide]
10 | 63 | O=C(/C=C/c1cccnc1)NCCCCC1CCN(C(=O)c2ccc(N3CCN(CCCCCCSc4cccc5c4C(=O)N(C4CCC(=O)NC4=O)C5=O)CC3)cc2)CC1 (stereo not shown) [SIAIS631072, (E)-N-(4-(1-(4-(4-(6-((2-(2,6-dioxopiperidin-3-yl)-1,3-dioxoisoindolin-4-yl)thio)hexyl)piperazin-1-yl)benzoyl)piperidin-4-yl)butyl)-3-(pyridin-3-yl)acrylamide]
11 | 62.5 | O=C(/C=C/c1cccnc1)NCCCCC1CCN(C(=O)c2ccc(N3CCN(CCCCCCCCSc4cccc5c4C(=O)N(C4CCC(=O)NC4=O)C5=O)CC3)cc2)CC1 (stereo not shown) [SIAIS631073, (E)-N-(4-(1-(4-(4-(8-((2-(2,6-dioxopiperidin-3-yl)-1,3-dioxoisoindolin-4-yl)thio)octyl)piperazin-1-yl)benzoyl)piperidin-4-yl)butyl)-3-(pyridin-3-yl)acrylamide]
12 | 62.2 | O=C(/C=C/c1cccnc1)NCCCCC1CCN(C(=O)c2ccc(N3CCN(CCCCCCCSc4cccc5c4C(=O)N(C4CCC(=O)NC4=O)C5=O)CC3)cc2)CC1 (stereo not shown) [SIAIS631078, (E)-N-(4-(1-(4-(4-(7-((2-(2,6-dioxopiperidin-3-yl)-1,3-dioxoisoindolin-4-yl)thio)heptyl)piperazin-1-yl)benzoyl)piperidin-4-yl)butyl)-3-(pyridin-3-yl)acrylamide]
13 | 7.32 | O=C(/C=C/c1cccnc1)NCCCCC1CCN(C(=O)c2ccc(N3CCN(C(=O)CCOCCNc4cccc5c4C(=O)N(C4CCC(=O)NC4=O)C5=O)CC3)cc2)CC1 (stereo not shown) [SIAIS631079, (E)-N-(4-(1-(4-(4-(3-(2-((2-(2,6-dioxopiperidin-3-yl)-1,3-dioxoisoindolin-4-yl)amino)ethoxy)propanoyl)piperazin-1-yl)benzoyl)piperidin-4-yl)butyl)-3-(pyridin-3-yl)acrylamide]
14 | 79.7 | O=C(/C=C/c1cccnc1)NCCCCC1CCN(C(=O)c2ccc(N3CCN(CCCCCC#Cc4cccc5c4C(=O)N(C4CCC(=O)NC4=O)C5=O)CC3)cc2)CC1 (stereo not shown) [SIAIS631108, (E)-N-(4-(1-(4-(4-(7-(2-(2,6-dioxopiperidin-3-yl)-1,3-dioxoisoindolin-4-yl)hept-6-yn-1-yl)piperazin-1-yl)benzoyl)piperidin-4-yl)butyl)-3-(pyridin-3-yl)acrylamide]
15 | 71.2 | O=C(/C=C/c1cccnc1)NCCCCC1CCN(C(=O)c2ccc(N3CCN(C(=O)CCOCCOCCNc4cccc5c4C(=O)N(C4CCC(=O)NC4=O)C5=O)CC3)cc2)CC1 (stereo not shown) [SIAIS631109, (E)-N-(4-(1-(4-(4-(3-(2-(2-((2-(2,6-dioxopiperidin-3-yl)-1,3-dioxoisoindolin-4-yl)amino)ethoxy)ethoxy)propanoyl)piperazin-1-yl)benzoyl)piperidin-4-yl)butyl)-3-(pyridin-3-yl)acrylamide]
16 | 64.3 | O=C(/C=C/c1cccnc1)NCCCCC1CCN(C(=O)c2ccc(N3CCN(C(=O)COCCSc4cccc5c4C(=O)N(C4CCC(=O)NC4=O)C5=O)CC3)cc2)CC1 (stereo not shown) [SIAIS631111, (E)-N-(4-(1-(4-(4-(2-(2-((2-(2,6-dioxopiperidin-3-yl)-1,3-dioxoisoindolin-4-yl)thio)ethoxy)acetyl)piperazin-1-yl)benzoyl)piperidin-4-yl)butyl)-3-(pyridin-3-yl)acrylamide]
